Measured values from patent US20240109865A1, “INDAZOLE COMPOUNDS AS KINASE INHIBITORS” (TYRA BIOSCIENCES, INC., priority 2020, published 2024).

What was measured:
Assay in all cases: Kinase assay, binding constants (Kd), kinase-tagged T7 phage, qPCR
FGFR2 = FGFR2 (Homo sapiens (Human), UniProt P21802)
Procedure, shortened: (§1)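 Competition binding: kinase-tagged T7 phage lysates mixed with immobilized biotinylated ligand on streptavidin beads plus compound (11-point 3-fold dilution series, 0.9% DMSO final). Bound kinase eluted with free ligand and quantified by qPCR. Kd from Hill equation fit, slope fixed at −1.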

FGFR4 = FGFR4 (Homo sapiens (Human), UniProt P22455)
Procedure, shortened: as §1

FGFR3 (V555M) = FGFR3 (V555M) (Homo sapiens (Human), UniProt P22607, V555M); conditions: V555M mutant
Procedure, shortened: as §1

FGFR3 = FGFR3 (Homo sapiens (Human), UniProt P22607)
Procedure, shortened: as §1

FGFR1 = FGFR1 (Homo sapiens (Human), UniProt P11362)
Procedure, shortened: as §1

FGFR2, sequence (P21802 22-821): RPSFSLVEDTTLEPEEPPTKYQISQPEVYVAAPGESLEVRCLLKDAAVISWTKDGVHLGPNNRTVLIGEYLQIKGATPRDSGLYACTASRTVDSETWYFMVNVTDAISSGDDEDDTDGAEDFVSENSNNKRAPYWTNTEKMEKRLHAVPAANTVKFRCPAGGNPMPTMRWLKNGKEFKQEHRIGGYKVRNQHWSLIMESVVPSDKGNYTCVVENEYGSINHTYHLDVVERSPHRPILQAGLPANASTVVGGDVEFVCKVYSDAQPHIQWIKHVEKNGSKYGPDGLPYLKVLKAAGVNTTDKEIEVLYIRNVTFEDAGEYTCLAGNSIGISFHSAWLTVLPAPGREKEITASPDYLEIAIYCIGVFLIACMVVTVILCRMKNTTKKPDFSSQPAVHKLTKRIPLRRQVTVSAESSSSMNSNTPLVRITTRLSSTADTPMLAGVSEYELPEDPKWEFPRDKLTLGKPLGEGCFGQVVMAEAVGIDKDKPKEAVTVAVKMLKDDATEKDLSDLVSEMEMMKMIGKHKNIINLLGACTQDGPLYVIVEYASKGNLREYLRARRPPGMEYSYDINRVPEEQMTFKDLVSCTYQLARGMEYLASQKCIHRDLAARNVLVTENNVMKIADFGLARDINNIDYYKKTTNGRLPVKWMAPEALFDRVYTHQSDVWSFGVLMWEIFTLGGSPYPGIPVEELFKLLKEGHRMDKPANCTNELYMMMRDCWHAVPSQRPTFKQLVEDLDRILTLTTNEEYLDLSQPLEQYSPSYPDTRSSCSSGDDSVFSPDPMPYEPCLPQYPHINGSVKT
FGFR3, sequence (P22607 23-806): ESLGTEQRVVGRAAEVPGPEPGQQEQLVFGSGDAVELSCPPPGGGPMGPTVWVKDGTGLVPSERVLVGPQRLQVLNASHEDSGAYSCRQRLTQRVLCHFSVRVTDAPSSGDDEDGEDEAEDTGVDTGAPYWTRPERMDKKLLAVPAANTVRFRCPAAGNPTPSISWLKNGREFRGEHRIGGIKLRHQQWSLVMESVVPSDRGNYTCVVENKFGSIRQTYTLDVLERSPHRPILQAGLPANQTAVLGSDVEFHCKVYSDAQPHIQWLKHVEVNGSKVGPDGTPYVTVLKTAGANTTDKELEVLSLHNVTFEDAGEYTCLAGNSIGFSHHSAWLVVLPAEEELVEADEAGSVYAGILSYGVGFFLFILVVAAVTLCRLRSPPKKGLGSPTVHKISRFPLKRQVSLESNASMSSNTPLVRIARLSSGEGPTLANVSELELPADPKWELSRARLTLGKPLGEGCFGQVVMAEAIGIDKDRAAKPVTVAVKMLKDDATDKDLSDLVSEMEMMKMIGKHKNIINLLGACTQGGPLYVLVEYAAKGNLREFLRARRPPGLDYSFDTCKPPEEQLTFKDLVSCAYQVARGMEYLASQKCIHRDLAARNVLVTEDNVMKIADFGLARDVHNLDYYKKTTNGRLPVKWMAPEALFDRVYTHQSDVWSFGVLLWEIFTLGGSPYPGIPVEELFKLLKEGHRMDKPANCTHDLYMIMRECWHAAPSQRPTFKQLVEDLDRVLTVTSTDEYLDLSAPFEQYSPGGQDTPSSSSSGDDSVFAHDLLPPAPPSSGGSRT
FGFR4, sequence (P22455 22-802): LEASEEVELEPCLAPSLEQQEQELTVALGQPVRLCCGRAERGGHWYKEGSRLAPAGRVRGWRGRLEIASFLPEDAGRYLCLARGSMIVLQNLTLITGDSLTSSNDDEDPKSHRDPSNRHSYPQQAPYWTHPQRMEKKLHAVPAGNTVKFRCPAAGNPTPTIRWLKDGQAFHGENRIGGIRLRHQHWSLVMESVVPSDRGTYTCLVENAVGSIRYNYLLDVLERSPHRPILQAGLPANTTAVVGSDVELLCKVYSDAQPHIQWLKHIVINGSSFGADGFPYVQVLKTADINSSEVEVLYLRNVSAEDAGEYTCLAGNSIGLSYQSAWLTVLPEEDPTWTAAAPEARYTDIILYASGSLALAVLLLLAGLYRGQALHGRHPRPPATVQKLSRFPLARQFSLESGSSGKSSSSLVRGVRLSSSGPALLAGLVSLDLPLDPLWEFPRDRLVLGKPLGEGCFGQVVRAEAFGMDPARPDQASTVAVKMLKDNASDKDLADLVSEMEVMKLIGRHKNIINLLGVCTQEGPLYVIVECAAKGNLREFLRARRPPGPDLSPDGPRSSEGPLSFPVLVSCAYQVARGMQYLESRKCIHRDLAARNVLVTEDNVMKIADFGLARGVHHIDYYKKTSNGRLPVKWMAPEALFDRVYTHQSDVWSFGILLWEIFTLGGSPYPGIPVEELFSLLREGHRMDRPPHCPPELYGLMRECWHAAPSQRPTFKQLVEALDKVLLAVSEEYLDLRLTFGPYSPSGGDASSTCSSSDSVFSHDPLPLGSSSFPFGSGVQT
FGFR3 (V555M), sequence (P22607 23-806 V555M): as the sequence (P22607 23-806) above, with V533M counted along it
FGFR1, sequence (P11362 22-822): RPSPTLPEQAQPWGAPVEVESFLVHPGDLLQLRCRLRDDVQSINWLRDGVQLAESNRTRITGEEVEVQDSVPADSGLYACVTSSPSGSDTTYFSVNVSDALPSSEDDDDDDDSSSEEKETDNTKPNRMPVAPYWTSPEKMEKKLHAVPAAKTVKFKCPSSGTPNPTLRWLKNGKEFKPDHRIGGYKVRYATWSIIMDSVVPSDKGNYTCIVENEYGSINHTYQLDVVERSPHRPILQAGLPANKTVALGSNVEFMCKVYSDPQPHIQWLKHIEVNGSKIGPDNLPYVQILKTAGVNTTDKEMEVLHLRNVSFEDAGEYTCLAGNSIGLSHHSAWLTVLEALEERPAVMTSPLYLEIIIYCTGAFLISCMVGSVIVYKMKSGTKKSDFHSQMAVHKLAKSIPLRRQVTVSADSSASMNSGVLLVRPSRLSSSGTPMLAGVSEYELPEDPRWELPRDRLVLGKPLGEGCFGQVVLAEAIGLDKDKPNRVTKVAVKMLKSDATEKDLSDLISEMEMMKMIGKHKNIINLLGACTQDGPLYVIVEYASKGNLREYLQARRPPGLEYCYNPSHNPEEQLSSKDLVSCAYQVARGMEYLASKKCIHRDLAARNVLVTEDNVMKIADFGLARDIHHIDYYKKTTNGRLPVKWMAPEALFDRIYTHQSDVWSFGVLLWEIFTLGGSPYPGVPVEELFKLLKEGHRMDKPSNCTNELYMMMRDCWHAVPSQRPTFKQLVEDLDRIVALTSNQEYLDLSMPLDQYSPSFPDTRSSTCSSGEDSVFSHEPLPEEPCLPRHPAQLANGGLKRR

| Kd (FGFR2) [nM] | Kd (FGFR4) [nM] | Kd (FGFR3 (V555M)) [nM] | Kd (FGFR3) [nM] | Kd (FGFR1) [nM] | SMILES |
| --- | --- | --- | --- | --- | --- |
| 1 to 20 | 1 to 20 | 1 to 20 | 1 to 20 | 1 to 20 | C[C@@H](Oc1cc2c(-c3cnc(N4CC5(C4)CN(S(C)(=O)=O)C5)c(F)c3)n[nH]c2cc1F)c1c(Cl)cncc1Cl [Example 256, 5-[(1R)-1-(3,5-dichloro-4-pyridyl)ethoxy]-6-fluoro-3-[5-fluoro-6-(2-methylsulfonyl-2,6-diazaspiro[3.3]heptan-6-yl)-3-pyridyl]-1H-indazole] |
| 1 to 20 | 1 to 20 | 1 to 20 | 1 to 20 | 1 to 20 | C[C@@H](Oc1ccc2[nH]nc(-c3ccc(N4CC(C)(N)C4)nc3)c2c1)c1c(Cl)cncc1Cl [Example 257, (R)-1-(5-(5-(1-(3,5-dichloropyridin-4-yl)ethoxy)-1H-indazol-3-yl)pyridin-2-yl)-3-methylazetidin-3-amine] |
| 1 to 20 | 1 to 20 | 1 to 20 | 1 to 20 | 1 to 20 | C[C@@H](Oc1cc2c(-c3cnc(N4CC5(C4)CN(S(C)(=O)=O)C5)c(F)c3)n[nH]c2cc1F)c1c(Cl)cnnc1Cl [Example 258, (R)-5-(1-(3,5-dichloropyridazin-4-yl)ethoxy)-6-fluoro-3-(5-fluoro-6-(6-(methylsulfonyl)-2,6-diazaspiro[3.3]heptan-2-yl)pyridin-3-yl)-1H-indazole] |
| 1 to 20 | 1 to 20 | 1 to 20 | 1 to 20 | 1 to 20 | Cc1cc2[nH]nc(-c3cnc(N4CC5(C4)CN(S(C)(=O)=O)C5)c(F)c3)c2cc1O[C@H](C)c1c(Cl)cnnc1Cl [Example 259, (R)-5-(1-(3,5-dichloropyridazin-4-yl)ethoxy)-3-(5-fluoro-6-(6-(methylsulfonyl)-2,6-diazaspiro[3.3]heptan-2-yl)pyridin-3-yl)-6-methyl-1H-indazole] |
| 1 to 20 | 1 to 20 | 1 to 20 | 1 to 20 | 1 to 20 | C[C@@H](Oc1cc2c(-c3ccc(N4CC5(C4)CN(S(C)(=O)=O)C5)nc3)n[nH]c2cc1Cl)c1c(Cl)cncc1Cl [Example 260, (R)-6-chloro-5-(1-(3,5-dichloropyridin-4-yl)ethoxy)-3-(6-(6-(methylsulfonyl)-2,6-diazaspiro[3.3]heptan-2-yl)pyridin-3-yl)-1H-indazole] |
| 1 to 20 | 1 to 20 | 1 to 20 | 1 to 20 | 1 to 20 | COc1cc2[nH]nc(-c3ccc(N4CC5(C4)CN(S(C)(=O)=O)C5)nc3)c2cc1O[C@H](C)c1c(Cl)cnnc1Cl [Example 261, (R)-5-(1-(3,5-dichloropyridazin-4-yl)ethoxy)-6-methoxy-3-(6-(6-(methylsulfonyl)-2,6-diazaspiro[3.3]heptan-2-yl)pyridin-3-yl)-1H-indazole] |
| 1 to 20 | 1 to 20 | 1 to 20 | 1 to 20 | 1 to 20 | C[C@@H](Oc1cc2c(-c3ccc(N4CC5(C4)CN(S(C)(=O)=O)C5)nc3)n[nH]c2cc1F)c1c(Cl)cnnc1Cl [Example 262, (R)-5-(1-(3,5-dichloropyridazin-4-yl)ethoxy)-6-fluoro-3-(6-(6-(methylsulfonyl)-2,6-diazaspiro[3.3]heptan-2-yl)pyridin-3-yl)-1H-indazole] |
| 1 to 20 | 1 to 20 | 1 to 20 | 1 to 20 | 1 to 20 | C[C@@H](Oc1cc2c(-c3ccc(N4CC5(C4)CN(S(C)(=O)=O)C5)nc3)n[nH]c2cc1Cl)c1c(Cl)cnnc1Cl [Example 263, (R)-6-chloro-5-(1-(3,5-dichloropyridazin-4-yl)ethoxy)-3-(6-(6-(methylsulfonyl)-2,6-diazaspiro[3.3]heptan-2-yl)pyridin-3-yl)-1H-indazole] |
| 1 to 20 | 1 to 20 | 1 to 20 | 1 to 20 | 1 to 20 | C[C@@H](Oc1cc2c(-c3cnc(N4CC5(C4)CN(S(C)(=O)=O)C5)c(F)c3)n[nH]c2cc1Cl)c1c(Cl)cnnc1Cl [Example 264, (R)-6-chloro-5-(1-(3,5-dichloropyridazin-4-yl)ethoxy)-3-(5-fluoro-6-(6-(methylsulfonyl)-2,6-diazaspiro[3.3]heptan-2-yl)pyridin-3-yl)-1H-indazole] |
| 1 to 20 | 1 to 20 | 1 to 20 | 1 to 20 | 1 to 20 | C[C@@H](Oc1ccc2[nH]nc(-c3cnc(N4CC(C)(N)C4)c(F)c3)c2c1)c1c(Cl)cncc1Cl [Example 265, (R)-1-(5-(5-(1-(3,5-dichloropyridin-4-yl)ethoxy)-1H-indazol-3-yl)-3-fluoropyridin-2-yl)-3-methylazetidin-3-amine] |
| 1 to 20 | 1 to 20 | 1 to 20 | 1 to 20 | 1 to 20 | Cc1ncc(Cl)c([C@@H](C)Oc2cc3c(-c4ccc(N5CC6(C5)CN(S(C)(=O)=O)C6)nc4)n[nH]c3cc2F)c1Cl [Example 266, 5-[(1R)-1-(3,5-dichloro-2-methyl-4-pyridyl)ethoxy]-6-fluoro-3-[6-(2-methylsulfonyl-2,6-diazaspiro[3.3]heptan-6-yl)-3-pyridyl]-1H-indazole] |
| 20 to 100 | 1 to 20 | 1 to 20 | 1 to 20 | 20 to 100 | COc1cc2[nH]nc(-c3cnc(N4CC[C@H]4C)c(F)c3)c2cc1O[C@H](C)c1c(Cl)cncc1Cl [Example 267, 5-((R)-1-(3,5-dichloropyridin-4-yl)ethoxy)-3-(5-fluoro-6-((R)-2-methylazetidin-1-yl)pyridin-3-yl)-6-methoxy-1H-indazole] |
| 20 to 100 | 1 to 20 | 1 to 20 | 1 to 20 | 20 to 100 | COc1cc2[nH]nc(-c3cnc(N4CCC4)c(F)c3)c2cc1O[C@H](C)c1c(Cl)cncc1Cl [Example 268, (R)-3-(6-(azetidin-1-yl)-5-fluoropyridin-3-yl)-5-(1-(3,5-dichloropyridin-4-yl)ethoxy)-6-methoxy-1H-indazole] |
| 20 to 100 | 1 to 20 | 1 to 20 | 1 to 20 | 20 to 100 | Cc1ncc(Cl)c([C@@H](C)Oc2cc3c(-c4cnc(N5CC6(C5)CN(S(C)(=O)=O)C6)c(F)c4)n[nH]c3cc2F)c1Cl [Example 269, 5-[(1R)-1-(3,5-dichloro-2-methyl-4-pyridyl)ethoxy]-6-fluoro-3-[5-fluoro-6-(2-methylsulfonyl-2,6-diazaspiro[3.3]heptan-6-yl)-3-pyridyl]-1H-indazole] |
| 20 to 100 | 1 to 20 | 1 to 20 | 1 to 20 | 20 to 100 | Cc1ncc(Cl)c([C@@H](C)Oc2cc3c(-c4cnc(N5CC6(C5)CN(S(C)(=O)=O)C6)c(F)c4)n[nH]c3cc2Cl)c1Cl [Example 270, 6-chloro-5-[(1R)-1-(3,5-dichloro-2-methyl-4-pyridyl)ethoxy]-3-[5-fluoro-6-(2-methylsulfonyl-2,6-diazaspiro[3.3]heptan-6-yl)-3-pyridyl]-1H-indazole] |
| 20 to 100 | 1 to 20 | 1 to 20 | 1 to 20 | 20 to 100 | COc1cc2[nH]nc(-c3cnc(N4CC[C@@H]4C)c(F)c3)c2cc1O[C@H](C)c1c(Cl)cncc1Cl [Example 271, 5-((R)-1-(3,5-dichloropyridin-4-yl)ethoxy)-3-(5-fluoro-6-((S)-2-methylazetidin-1-yl)pyridin-3-yl)-6-methoxy-1H-indazole] |
